From PubChem BioAssay (NCI)
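Step 1: Grow cells in 96-well plates. Step 2: Expose to compound for 48 hours at 5 concentrations. Step 3: Interpolate endpoints linearly; if unreached, use highest concentration. GI50: concentration for 50% inhibition of growth. TGI marks complete inhibition of growth.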

Tests used:
Experiment in all cases: NCI-60 cell line screen, 48 h
TK-10 renal = tested on: TK-10 renal
SK-OV-3 ovarian = tested on: SK-OV-3 ovarian
SNB-78 CNS = tested on: SNB-78 CNS
HL-60(TB) leukemia = tested on: HL-60(TB) leukemia
NCI-H522 lung = tested on: NCI-H522 lung
HCC-2998 colon = tested on: HCC-2998 colon
KM20L2 colon = tested on: KM20L2 colon
HOP-62 NSCLC = tested on: HOP-62 NSCLC
MDA-MB-231 breast = tested on: MDA-MB-231 breast
BT-549 breast = tested on: BT-549 breast

Compound	TGI (TK-10 renal) [µM]	TGI (SK-OV-3 ovarian) [µM]	TGI (SNB-78 CNS) [µM]	TGI (HL-60(TB) leukemia) [µM]	TGI (NCI-H522 lung) [µM]	TGI (HCC-2998 colon) [µM]	TGI (KM20L2 colon) [µM]	TGI (HOP-62 NSCLC) [µM]	GI50 (SK-OV-3 ovarian) [µM]	GI50 (KM20L2 colon) [µM]	GI50 (SNB-78 CNS) [µM]	GI50 (HOP-62 NSCLC) [µM]	GI50 (HL-60(TB) leukemia) [µM]	GI50 (NCI-H522 lung) [µM]	GI50 (HCC-2998 colon) [µM]	GI50 (TK-10 renal) [µM]	GI50 (MDA-MB-231 breast) [µM]	TGI (MDA-MB-231 breast) [µM]	GI50 (BT-549 breast) [µM]	TGI (BT-549 breast) [µM]
N#CCCC[Si]12OCCN(CCO1)CCO2	> 100	> 100	> 100	> 100	> 100	> 100														
CCOC(=O)C1Sc2ccccc2N=C1C (stereo not drawn)	> 100		> 100	> 100	> 100	> 100	> 100	> 100												
[O-][Cl+3]([O-])([O-])[O-].[O]=[Ru]=[O].c1ccc(-c2ccccn2)nc1.c1ccc(-c2ccccn2)nc1		> 100	> 100	> 100	> 100	> 100	> 100	> 100	> 100	> 100	> 100	> 100	> 100	> 100	88.6					
O=C1C(C(Nc2ccccc2)c2ccccc2)=C([O-])c2ccccc21.O=C1C(C(Nc2ccccc2)c2ccccc2)=C([O-])c2ccccc21.[Cu+2] (stereo not drawn)	> 100	63	> 100	> 100	73.6		> 100	> 100	8.38	52.5	84.6	> 100	19.6	23.7		> 100				
O=c1c2cccnc2ncn1CCN1CCCCC1	> 100	> 100	> 100		> 100	> 100	> 100	> 100												
CC(=O)[O-].CC(=O)[O-].O=C(N/N=C/c1cc(Cl)cc(Cl)c1O)c1ccncc1.[Cu+2]	> 100	> 100		> 100	> 100	> 100	> 100	> 100												
COc1ccc(/C=C/COC(C)=O)cc1OC	> 100	> 100	> 100		> 100	> 100	> 100													
O=C1OCC2=C1C(c1cccc(Br)c1)c1cc3c(cc1N2CCO)OCCO3 (stereo not drawn)	16.9	4.04		0.362	0.0478	1.71		18.7	0.067			0.0891	0.0452	0.0116	0.0927	0.101	0.209	2.85	0.136	6.35
Cc1nc(-c2nc(C)c(C(=O)NNC(=O)C[n+]3ccccc3)s2)sc1C(=O)NNC(=O)C[n+]1ccccc1	> 100	> 100	> 100	> 100		> 100	> 100	> 100												
c1ccc(-c2n(Cc3ccc4ccccc4n3)cc[n+]2Cc2ccc3ccccc3c2)cc1	4.11	4.69		0.88	3.42	2.24		6.13	1.8			2.01	0.256	0.706	0.767	1.61	1.16	3.32	1.63	3.7
CCCCCCCCCCSC(=N)N (tested in a mixture with another compound)	4.19	24.8		4.19	4.68	3.05		27.3	11.8			11.8	1.85	1.91	1.6	1.95	1.8	4.22	6.65	25.9
CCOC(=O)n1cc(C2=C(c3ccc(OC)c(OC)c3)COC2=O)c2ccccc21	> 91.5	> 100		0.0851	> 33.3	16.5		> 100	0.817			0.075	0.0279	0.0389	0.0891	13.5	0.16	> 100	0.105	22.6
O=C(Nc1nn2c(-c3cc(C(F)(F)F)cc(C(F)(F)F)c3)nnc2s1)C1CCCC1	> 100	45.8		1.75	2.29	> 100		> 29.8	1.76			2.42	0.407	0.277	0.685	1.79	1.12	4.01	0.796	> 74.7
CN1CCN(C(=O)COc2ccc(C34CC5CC(CC(C5)C3)C4)cc2)CC1	33.2	30.4		23.2	33.4	27.4		32.5	14			14.5	4.7	15	13.8	16.7	13	27.8	12.2	26.5
COC(=O)/C=C/c1cc(OC(C)=O)c2c(c1)[C@@H](C(=O)OC)[C@H](c1ccc(OC(C)=O)c(OC(C)=O)c1)O2	> 91.1	41.9		0.0934	2.13	22		63.9	0.417			0.0779	0.0288	0.0348	0.514	2.58	0.305	34.4	0.219	32.9
c1ccc(Nc2ncc(-c3ccccc3)o2)cc1	> 25	> 25		> 25	> 25	> 25		> 25	> 25			> 25	24	> 25	> 25	> 25	> 25	> 25	> 25	> 25
CC[C@@H](c1ccc(O)c(O)c1)[C@@H](CC)c1ccc(O)c(O)c1	70.3	77.9		6.21	5.63	33.1		33	29.4			17.7	2.66	2.46	17.4	26	12	29.1	13.2	26.1
COc1ccccc1NC(=O)c1cc2cc(Br)ccc2cc1O	15.3	6.08		> 22.1	7	11.8		6.86	1.75			2.38	2.14	1.86	3.21	4.31	2.05	5.69	2.15	6.12

Compound	TGI (TK-10 renal) [µM]	TGI (SK-OV-3 ovarian) [µM]	TGI (SNB-78 CNS) [µM]	TGI (HL-60(TB) leukemia) [µM]	TGI (NCI-H522 lung) [µM]	TGI (HCC-2998 colon) [µM]	TGI (KM20L2 colon) [µM]	TGI (HOP-62 NSCLC) [µM]	GI50 (SK-OV-3 ovarian) [µM]	GI50 (KM20L2 colon) [µM]	GI50 (SNB-78 CNS) [µM]	GI50 (HOP-62 NSCLC) [µM]	GI50 (HL-60(TB) leukemia) [µM]	GI50 (NCI-H522 lung) [µM]	GI50 (HCC-2998 colon) [µM]	GI50 (TK-10 renal) [µM]	GI50 (MDA-MB-231 breast) [µM]	TGI (MDA-MB-231 breast) [µM]	GI50 (BT-549 breast) [µM]	TGI (BT-549 breast) [µM]
O=C(O)CSc1n[nH]c(-c2ccccc2O)n1	> 100		> 100	> 100		> 100	> 100													
CCCOc1nc(N)c2cnn(C3CCCCO3)c2n1 (stereo not drawn)		> 100	> 100	> 100	> 100	> 100	> 100	> 100												
CN(C)C(=S)/N=c1\ssc(=S)n1C1CCCCC1	> 100	> 100		32.5	37.4	> 100	> 100	> 100												
Cc1cc2c(cc1C)[n+](=O)c(C(=O)c1ccccc1)c(C(F)F)n2[O-]	> 100	> 100		18.9	27.2	> 100		> 100	54.5			26.4	3.3	7.82	32.8	38	30.4	> 100	14.2	65.3
CC1(C)[C@@H](NOCCCN)CC[C@]2(C)[C@H]3C(=O)C=C4[C@@H]5C[C@](C)(C(=O)O)CC[C@]5(C)CC[C@@]4(C)[C@]3(C)CC[C@@H]12	36	67		4.16	4.85	13.1		48.4	17.8			13.5	1.89	2.08	3.59	16.7	8.57	22.1	9.44	47.8
O=C(Nc1cccc(C(F)(F)F)c1)Nc1cccc(C(F)(F)F)c1	7.2	6.34		5.86	4.32	6.5		3.64	1.89			1.4	1.84	1.2	1.51	1.3	1.47	3.29	2.29	6.44
Br[Se]c1ccccn1	34.5	34.8		40.3	30.4	35.5		12.2										31.5		32.9
O=c1[nH]c(-c2ccccc2)nc2cc(Cl)ccc12	> 100	> 100	> 100	> 100		> 100	> 100	> 100												
COc1c(CC(C)=O)ccc2c1C(=O)c1ccc(C=O)c(OC(C)=O)c1C2=O	75.1	> 100	55.6	22.4	8.39	24.5	37.8													
O=C(NC1CCCCC1)NS(=O)(=O)c1ccc(N2N=C3c4ccccc4CC3C2c2ccc(Cl)cc2)cc1 (stereo not drawn)	19.8	> 100		36.6	30.9	7.53		30.9	24.5			15	15.8	9.43	3.56	4.5	12.8	31.2	7.01	25.2
CN(C)CC1CCC/C1=N/OC(=O)c1ccccc1 (stereo not drawn)	> 100	> 100	> 100		> 100	> 100	> 100	> 100												
C=C1C(=O)O[C@H]2[C@H]1CC/C(CNC(=O)c1cc3ccccc3[nH]1)=C\CC[C@@]1(C)O[C@@H]21	3.23	23.8		5.8	3.31	3.38		4.37	11.6			1.86	2.01	1.57	1.85	1.48	1.38	3.34	1.69	3.34
COc1c2ccccc2c(OC)c2[nH]c(=O)ccc12	> 100	> 100		> 92.4	> 100	> 58.8		3.72	65.1			2.01	12.4	7.73	13.2	51.2	9.75	> 89.8	2.07	4.51
COCCn1cc(-c2nc(-c3cc4cccnc4[nH]3)cs2)c2cc(OC)ccc21	10.7	11.6		13.3	21	97.4		9.36	3.04			2.2	2.95	2.99	3.68	1.07	1.76	> 79.9	1.8	7.66
COc1ccc2c(c1)[n+]([O-])c(C(N)=O)c(N)[n+]2[O-]		> 100	> 100	> 100	31.1		> 100	> 100												
C[C@@H]1CC[C@H]2C(C)(C)[C@H]3C[C@@]12CC[C@@]3(C)O	> 100	> 100		61.9	> 100	> 100		> 100										> 100		> 100
CC(=O)N[C@@H](Cc1ccc(OP(=O)(O)O)cc1)C(=O)N[C@H]1CCC(=O)N2CCC[C@@H](C(=O)Nc3cccc4ccccc34)N2C1=O	> 25	> 25		> 25	> 25	> 25		> 25	> 25			> 25	> 25	> 25	> 25	> 25	> 25	> 25	> 25	> 25
Fc1cc(-c2nnc3n2N=C(c2ccc(Cl)cc2)CS3)c(Cl)cc1Cl	11.2	51.5		> 100		31.1		36.4	22.5			20.1	0.96	2.79	15.9	3.09	6.57	18.2	3.27	8.66
